{"source": "patent US7388007B2", "about": "“Gamma-lactams as beta-secretase inhibitors” (Bristol-Myers Squibb Company, priority 2004, dated 2008)", "biological_target": "T1, BACE1 enzyme (Homo sapiens, UniProt P56817)", "T1 construct": "The HEK293-9B.A1 cell line, which overexpresses the BACE1 enzyme, was derived from HEK293 cells; endogenous in cells; washed 48,000 x g membrane pellet / cell homogenate", "T1 sequence (P56817 46-501)": "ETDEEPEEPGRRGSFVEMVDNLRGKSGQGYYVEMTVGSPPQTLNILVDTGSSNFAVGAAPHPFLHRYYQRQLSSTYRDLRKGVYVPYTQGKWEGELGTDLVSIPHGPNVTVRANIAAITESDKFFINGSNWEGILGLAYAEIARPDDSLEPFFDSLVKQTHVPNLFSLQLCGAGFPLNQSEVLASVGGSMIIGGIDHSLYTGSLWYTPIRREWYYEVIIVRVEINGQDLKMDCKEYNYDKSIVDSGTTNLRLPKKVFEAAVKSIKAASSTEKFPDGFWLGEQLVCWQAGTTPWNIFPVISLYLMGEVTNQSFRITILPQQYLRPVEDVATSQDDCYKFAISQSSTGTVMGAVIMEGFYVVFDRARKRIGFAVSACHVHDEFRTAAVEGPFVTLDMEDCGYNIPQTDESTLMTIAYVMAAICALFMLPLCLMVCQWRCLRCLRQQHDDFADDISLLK", "assay": "Radioligand displacement assay with a radiolabeled BACE inhibitor on HEK293-9B.A1 cell homogenate", "type": "binding", "conditions": "displacement of 1 nM tritiated radioligand, HEK293-9B.A1 homogenate, pH 5.0, 1.5 hr at 25° C.; read-out: Activity Rating (based on IC50 values)", "description": "There are a number of methods by which inhibitors of the BACE enzyme can be identified experimentally. The enzyme can be obtained from membrane samples from natural tissues or cultured cells or can be expressed recombinantly in a host cell by well known methods of molecular biology. The whole enzyme or a portion thereof can be expressed, for example, in bacterial, insect or mammalian cells to obtain a catalytically active enzyme species. The enzymatic activity and/or ligand binding capability of the enzyme can be assessed within these membrane samples, or the enzyme can be purified to varying extents. As an illustrative example, the nucleic acid sequence encoding the pro and catalytic domains of human BACE can be appended on the 5′ end with an untranslated and signal sequence from the gene for acetylcholinesterase, and on the 3′ end with a sequence encoding a poly-histidine tag. This cDNA can then be expressed in Drosophila melanogaster S2 cells in which the signal and pro sequences of the transcribed/translated protein are removed by cellular proteases and the catalytic domain, appended by a C-terminal poly-histidine tag, is secreted out into the cellular medium. The enzyme can then be purified from the culture medium by nickel affinity chromatography by methods well known to those trained in the art [Mallender, W. et al., (2001) “Characterization of recombinant, soluble beta-secretase from an insect cell expression system.” Mol. Pharmacol. 59: 619-626]. Similar strategies for expressing and purifying various forms of BACE in bacterial, mammalian and other cell types would be known to one skilled in the art. A preferred method for determining the potency of a test compound in binding to the BACE enzyme is by moitoring the displacement of a suitable radioligand.\nRadioligand displacement assays with a radiolabeled BACE inhibitor (WO 2004 013098, compound 3, where the methoxy group is substituted for C(^3H)3) were carried out using standard methods (Keen, M. (1999) in Receptor Binding Techniques (Walker, J. M. ed) p. 106 Humana Press, Totowa, N.J.). The HEK293-9B.A1 cell line, which overexpresses the BACE1 enzyme, was derived from HEK293 cells (Simmons, N. L. (1990) A cultured human renal epithelioid cell line responsive to vasoactive intestinal peptide. Exp. Physiol. 75:309-19.) by RAGE™ (Harrington, J. J. et al. (2001) Creation of genome-wide protein expression libraries using random activation of gene expression. Nat. Biotechnol. 19:440-5; U.S. Pat. Nos. 6,410,266 and 6,361,972). T225 flask cultures of HEK293-9B.A1 were grown to 80% confluency in DMEM supplemented with 2 mM L-glutamine, 10 μg/ml penecillin, 10 μg/ml streptomycin, 3 μg/ml puromycin, 100 nM methotrexate, and 10% fetal bovine serum (Invitrogen, Carlsbad, Calif.), harvested, and resuspended at 2×10^8 cells per 10 ml of lysis buffer consisting of 50 mM HEPES pH 7.0 containing a protease inhibitor cocktail of AEBSF 104 μM, aprotinin 80 nM, leupeptin 2 μM, bestatin 4 μM, pepstatin A 1.5 μM, and E-64 1.4 μM (0.1% of protease inhibitor cocktail P8340, Sigma-Aldrich, St. Louis, Mo.) at 4° C. The resuspended cells were homogenized using a Polytron (Brinkman, Westbury, N.Y.) at setting 6 for 10 sec., then centrifuged at 48,000×g for 10 min. The resulting pellet was washed by repeating the resuspension, homogenization and centrifugation steps. […]", "data": [{"compound": "CCCO[C@H]1CN[C@@H]([C@@H](O)[C@H](Cc2cc(F)cc(F)c2)NC(=O)[C@H](CCc2ccccc2)N2CC[C@](NC(C)=O)([C@@H](C)CC)C2=O)C1", "note": "(stereo in doubt) [Example 2, (S)-2-((R)-3-acetamido-3-secbutyl-2-oxopyrrolidin-1-yl)-N-((1R,2S)-3-(3,5-difluorophenyl)-1-hydroxy-1-((2R,4R)-4-propoxypyrrolidin-2-yl)propan-2-yl)-4-phenylbutanamide]", "values": [{"measurement": "IC50", "result": "< 100", "unit": "nM"}]}, {"compound": "CCC(C)[C@@]1(NC(C)=O)CCN([C@@H](CCc2ccccc2)C(=O)N[C@@H](Cc2cc(F)cc(F)c2)[C@H](O)[C@H]2CCCCN2)C1=O", "note": "(stereo in doubt) [Example 8, (S)-2-((S)-3-acetamido-3-((R)-sec-butyl)-2-oxopyrrolidin-1-yl)-N-((1R,2S)-3-(3,5-difluorophenyl)-1-hydroxy-1-((R)-piperidin-2-yl)propan-2-yl)-4-phenylbutanamide]", "values": [{"measurement": "IC50", "result": "< 100", "unit": "nM"}]}, {"compound": "CCCOC1CN[C@@H]([C@@H](O)C(Cc2cc(F)cc(F)c2)NC(=O)[C@H](C)N2CC[C@H](CC(C)C)C2=O)C1", "note": "(some centres unmarked) [Example 7]", "values": [{"measurement": "IC50", "result": "100 to 1000", "unit": "nM"}]}, {"compound": "CC[C@@H](C)[C@@]1(NC(C)=O)CCN([C@@H](CCc2ccccc2)C(=O)N[C@@H](Cc2cc(F)cc(F)c2)[C@H](O)[C@H]2C[C@H](O)CN2)C1=O", "note": "[Example 15, (S)-2-((S)-3-acetamido-3-((R)-sec-butyl)-2-oxopyrrolidin-1-yl)-N-((1R,2S)-3-(3,5-difluorophenyl)-1-hydroxy-1-((2R,4S)-4-hydroxypyrrolidin-2-yl)propan-2-yl)-4-phenylbutanamide]", "values": [{"measurement": "IC50", "result": "< 100", "unit": "nM"}]}, {"compound": "CCCS(=O)(=O)[C@H]1CN[C@@H]([C@@H](O)[C@H](Cc2ccccc2)NC(=O)[C@H](CCc2ccccc2)N2CC[C@](NC(C)=O)([C@H](C)CC)C2=O)C1", "note": "[Example 22, (S)-2-((S)-3-acetamido-3-((R)-sec-butyl)-2-oxopyrrolidin-1-yl)-N-((1R,2S)-1-hydroxy-3-phenyl-1-((2R,4R)-4-(propylsulfonyl)pyrrolidin-2-yl)propan-2-yl)-4-phenylbutanamide]", "values": [{"measurement": "IC50", "result": "< 100", "unit": "nM"}]}]}
